From patent publication US11453632B2, “1-phenyl-2-phenylethane derivative” (KAO CORPORATION, priority 2018, dated 2022) come the findings set out here.

Series [1] has as its system prostate of testosterone-induced prostatic hyperplasia rat. The series can be described thus: Efficacy on prostate in testosterone-induced prostatic hyperplasia rat. It is filed as in vivo. The note with it: testosterone 3 mg/kg/day plus test substance 0.1 or 1 mg/kg body weight/day, subcutaneous osmotic pump, 28 days, vs testosterone alone. From the text:
12-week-old male Slc:SD (SPF) rats were obtained from Japan SLC, Inc. An acclimatization period was established for 1 week after receipt. During the acclimatization period, the rats were allowed to freely ingest a powder diet (AIN-93G).
2) Implantation of Osmotic Pump
(§1) After body weight measurement, back hair was shaved under isoflurane (AbbVie GK) inhalation anesthesia, and carprofen was subcutaneously administered to the rats. Then, an incision of approximately 1 cm at the maximum was made on the cranial side in the back. An osmotic minipump Alzet (Muromachi Kikai Co., Ltd.) containing testosterone and compound 17-F or finasteride (Sigma-Aldrich Co. LLC) was subcutaneously implanted. From this osmotic pump, testosterone (3 mg/kg body weight/day) (Sigma-Aldrich Co. LLC) and compound 17-F (0.1 mg/body weight/day or 1 mg/kg body weight/day) or finasteride (0.1 mg/kg body weight/day or 1 mg/kg body weight/day) were continuously administered for 28 days. Since the implantation of the osmotic pump, the rats were allowed to freely ingest customized feed AIN-93G (Oriental Yeast Co., Ltd.) free from components derived from soybeans.
3) Photographing of Skin and Harvesting of Prostate
After a lapse of 28 days, body weights were measured, and subsequently, the rats were euthanized by blood letting under isoflurane anesthesia. Back hair was shaved, followed by photographing. Then, the abdominal cavity was opened to harvest the prostate on the ventral side. Wet weights were measured.

The test system of series [2] is back skin browning induced by testosterone. In words: Effect on sebum secretion (back skin browning) in testosterone-treated rat. It is filed as in vivo. The note with it: testosterone 3 mg/kg/day plus test substance, subcutaneous osmotic pump, 28 days.
Text: as §1, with “12-week-old male Slc:SD (SPF) rats were obtained from Japan SLC, Inc. An acclimatization period was established for 1 week after receipt. During the acclimatization period, the rats were allowed to freely ingest a powder diet (AIN-93G). 2) Implantation of Osmotic Pump After” for “After”, “soybeans. 3) Photographing of Skin and Harvesting of Prostate After a lapse of 28 days, body weights were measured, and subsequently, the rats were euthanized by blood letting under isoflurane anesthesia. […] Wet weights were measured. […]” for “soybeans.”

What is called melting point is the temperature of the solid-liquid transition.

Structures are written as SMILES.

Consider `CC(C)(C)NC(=O)[C@H]1CC[C@H]2[C@@H]3CC[C@H]4NC(=O)C=C[C@]4(C)[C@H]3CC[C@]12C` [finasteride, reference compound], for which, in series [1], the “size of the prostate (visual, FIG. 1)” value is given as “Concentration-dependent decrease in the size of the prostate” and the “weight of the prostate corrected with the body weight (FIG. 2)” value is reported as “decreased to almost the same level as in the DMSO administration group”. Also, in series [2], the “skin browning induced by testosterone (sebum secretion, FIG. 3)” value was “such an inhibitory effect was not confirmed”.

`Oc1ccc(CC(c2ccc(O)cc2)C2CCCCC2)cc1` (stereo not shown) [Compound 4, 4,4′-(1-cyclohexylethane-1,2-diyl)diphenol] came in with a melting point of 74 to 76 °C.
